In PMC10734620, “A blinded in vitro analysis of the intrinsic immunogenicity of hepatotoxic drugs: implications for preclinical risk assessment” (Toxicological Sciences, 2023):
Like-named read-outs stand apart in the source and are kept apart here.

Experiments:
PBMC = assay: Inhibition of mitogen-induced (PHA-P) PBMC proliferation; assay type: cell-based, human; conditions: PBMC from 3 healthy donors, compound 48 h, then PHA-P 10 µg/ml 24 h, [3H]-thymidine, read-out: IC50, inhibition of mitogen-driven PBMC proliferation
Protocol: Test compounds were provided by GSK to Liverpool as blinded dry powders with a given volume of dimethyl sulfoxide to prepare stock concentrations of 50 mM. Stock concentrations were aliquoted and stored at −80°C until required for experiments. A fresh aliquot was utilized for every experiment. PBMC from 3 healthy donors were used to determine the maximum tolerated concentration of each test compound. PBMC (0.15 × 10^6) were cultured with graded compound concentrations in U-bottomed 96-well plates for 48 h at 37°C, 5% CO2. Phytohemagglutinin (PHA-P; 10 µg/ml) was added to cells for a further 24 h followed by assessment of proliferation through the addition of [^3H]-thymidine (0.5 µCi/well) for the last 16 h. […] The IC50 value was then calculated using 4-parameter logistic curve-fitting model (GraphPad prism 7.0).
Figure 2. Toxicity profiles of training and test compounds. […] PHA-P (10 µg/ml) was added to cells for a further 24 h followed by assessment of proliferation through the addition of [^3H]-thymidine (0.5 µCi/well) for the last 16 h. […] 4-parameter logistic functions were fit to the data and IC50 values were then reported (GraphPad prism 7.0). […] LPB (Liverpool Pharmacology Biobank) represents the unique identifier for PBMC isolated from each consented healthy blood donor for drug safety research. Percentage proliferation for each compound concentration = Proliferation following drug exposure divided by proliferation after cell culture media exposure multiplied by 100.

T-cell clones = assay: Generation and drug-specificity testing of T-cell clones; assay type: cell-based, human; conditions: priming assay and/or T-cell clones
Protocol: To establish T-cell lines, PBMC from 3 healthy HLA-typed (Table 2) donors were cultured with individual test compounds (at concentrations not associated with inhibition of mitogen-driven PBMC proliferation; see Figure 2 for individual concentrations) for 14 days. Medium was supplemented with IL-2 (50 U/ml; Peprotech, New Jersey) to maintain drug-specific T-cell expansion. T-cell clones were generated from the T-cell lines by serial dilution and repetitive mitogen stimulation ([Schnyder et al., 2000]). T-cells (0.3–3 cells/well) were cultured with irradiated allogenic PBMC (5 × 10^4/well) and PHA-P (1 µg/ml) in IL-2 containing medium. The medium was supplemented with fresh IL-2 on days 6, 9 and every 2 days thereafter. Growing cultures were expanded further with a second round of mitogen stimulation and tested for drug-specific T-cell proliferation on day 28. Cloned T-cells (5 × 10^4/well) were cultured with irradiated autologous EBV-transformed B-cells (1 × 10^4/well) and drug in duplicate wells for 48 h. Wells containing medium served as a negative control. Proliferation was measured by the addition of [^3H]-thymidine followed by scintillation counting. T-cell clones with SI ≥ 2 were considered drug-responsive and expanded using irradiated allogeneic PBMC for dose-response studies and assessment of CD4/8 phenotyping.
Proliferation was measured by the addition of [^3H]-thymidine as described above.
T-cell clones were washed with FACS buffer and CD phenotype determined using flow cytometry. Cells (10 000) were acquired using a FACSCanto II (BD Biosciences) and data analyzed by FACSDiva software.
Figure 6. Generation of training compound (nitroso sulfamethoxazole, vancomycin, and Bandrowski’s base)-specific T-cell clones. PBMC from 3 healthy donors were cultured with training compounds and supplemented with IL-2 (50 U/ml) for 14 days. T-cell clones were generated from the T-cell lines by serial dilution and repetitive mitogen stimulation. T-cells (0.3–3 cells/well) were stimulated with irradiated allogenic PBMC (5 × 10^4/well) and phytohemagglutinin (1 µg/ml). Well growing cultures were subjected to a second round of expansion then tested for drug-specific T-cell proliferation. Proliferation was measured by the addition of ^3H-thymidine followed by scintillation counting. A–C, Initial specificity test for nitroso sulfamethoxazole, vancomycin, and Bandrowski’s base clones. T-cell clones showing stimulation index, SI ≥ 2 were considered drug-responsive and expanded and used in dose-response studies. SI = Drug-induced T-cell proliferation divided by T-cell proliferation in cell culture media. […] T-cell activation was determined using [^3H]-thymidine incorporation.
Figure 7. […] PBMC from 3 healthy donors were cultured with test compounds and supplemented with IL-2 (50 U/ml) for 14 days. T-cell clones were generated from the T-cell lines by serial dilution and repetitive mitogen stimulation. T-cells (0.3–3 cells/well) were stimulated with irradiated allogenic PBMC (5 × 10^4/well) and phytohemagglutinin (1 µg/ml). Well growing cultures were subjected to a second round of expansion then tested for drug-specific T-cell proliferation. Proliferation was measured by the addition of ^3H-thymidine followed by scintillation counting. […] T-cell activation was determined using [^3H]-thymidine incorporation.

[1] = set-up: method as in Sakatis et al., 2012; Schofield et al., 2021; conditions: Positive = above the threshold of concern; assays not listed negative; ref Sakatis et al., 2012; Schofield et al., 2021; cited from earlier work
[2] = set-up: method as in FDA DILIrank datasets; conditions: ref FDA DILIrank datasets; cited from earlier work
[3] = set-up: method as in earlier work; conditions: ref National Institute of Diabetes and Digestive and Kidney Diseases (2012); cited from earlier work
naïve T-cells = assay: Priming of naïve human T-cells (dendritic cell-T-cell coculture); assay type: cell-based; conditions: for Proliferation of primed T-cells, drug- vs medium-restimulated wells: 14 days priming, restimulation 48 h at single concentration, 48 wells, [3H]-thymidine; for Proliferation in medium restimulated wells after priming: primed 2 weeks, medium restimulation
Protocol: CD14+ monocytes were positively selected using CD14 antibody-conjugated microbeads. This was followed by the depletion of CD25+ cells from the CD14- population and the negative selection of CD45RA+ naïve T-cells. […] Dendritic cells were generated by culturing monocytes with a cocktail of GM-CSF (800 U/ml) and IL-4 (800 U/ml) in culture media for 6 days. Both cytokines were purchased from Peprotech (New Jersey). A maturation cocktail of TNF-α (25 ng/ml) and LPS (1 µg/ml) was added for 16 h before establishing the T-cell priming culture. Dendritic cells (8 × 10^3 per well) were cultured with naïve T-cells (1 × 10^5 per well) and the test compounds in a 96-well U-bottom tissue culture plate for 14 days at 37°C, 5% CO2. Cells were then washed extensively to remove unbound drug and cultures were restimulated with test compound or medium control (48 wells) for 48 h. Subsequent experiments were performed with training compounds to investigate the dose-dependent stimulation of naïve T-cells. In these experiments, T-cells were cultured with 3 concentrations of the test compound and medium (negative control) during the restimulation step. T-cell proliferative responses were determined by addition of [^3H]-thymidine (0.5 µCi/well) for the final 16 h of the culture period. Plates were harvested and counted as described above. […] Student’s t test was performed to determine statistical significance of T-cell proliferation when comparing medium- and drug-treated cultures (*p ≤ .05; **p ≤ .005; ***p < .001).
Figure 3. Naïve T-cell priming with training compounds. CD14+ monocytes were utilized to generate dendritic cells with a cocktail of GM-CSF (800 U/ml) and IL-4 (800 U/ml) in culture media for 6 days. […] A, Nitroso sulfamethoxazole. B, Vancomycin. C, Bandrowski’s base. D, Carbamazepine. E, Piperacillin. The degree of naïve T-cell priming was determined by comparing the counts per minutes (cpm) of drug and media-treated cultures using a beta counter. Student’s t test was performed to determine statistical significance (*p ≤ .05; **p ≤ .005; ***p < .001). Each data point represents T-cells proliferation in individual well of a 96 U-bottomed plate.
Figure 4. Dose-dependent stimulation of primed T-cells with training compound. […] Primed cells were washed extensively and then restimulated with 3 drug concentrations (low, medium, and high) for 48 h followed by determination of T-cell activation by [^3H]-thymidine incorporation. Each data point represents T-cells proliferation in individual well of a 96 U-bottomed plate.
Figure 5. Naïve T-cell priming with test compounds. […] B, Dacarbazine. […] F, Iproniazid. G, Mepivacaine. H, Nevirapine. […] J, Phenoxybenzamine. Primed cells were washed extensively and then restimulated medium or drug for 48 h followed by determination of T-cell activation by [^3H]-thymidine incorporation. Each data point represents T-cells proliferation in individual well of a 96 U-bottomed plate.

## CN(C)/N=N/c1[nH]cnc1C(N)=O [Dacarbazine]
PBMC; Homo sapiens, PBMC
  IC50: 15 µM
PBMC
  IC50: ≤ 20 µM
T-cell clones
  Overall immunogenicity call in T-cell assays: did not flag these compounds as immunogenic
[1]
  Routine Assays that are Positive (GSK): Reactive metabolite; 3D hepatocyte spheroid
[2]
  FDA Clinical Hepatotoxicity Concern: Most
[3]
  LiverTox annotation: likelihood as cause of clinically apparent liver injury: Highly likely cause of clinically apparent liver injury. May be immunologically mediated as usually occurs with second or third cycle and accompanied by eosinophilia

## COc1cc([C@@H]2c3cc4c(cc3[C@@H](O[C@@H]3O[C@@H]5CO[C@@H](C)O[C@H]5[C@H](O)[C@H]3O)[C@H]3COC(=O)[C@H]23)OCO4)cc(OC)c1O [Etoposide]
PBMC; Homo sapiens, PBMC
  IC50: 20 µM
PBMC
  IC50: ≤ 20 µM
T-cell clones
  Overall immunogenicity call in T-cell assays: no false positives
[2]
  FDA Clinical Hepatotoxicity Concern: Less
[3]
  LiverTox annotation: likelihood as cause of clinically apparent liver injury: Probable cause of clinically apparent liver injury. Absence of immunoallergic features (rash, fever, eosinophilia) and of autoantibodies noted. Uncommon to have features of hypersensitivity

## CC(C)NNC(=O)c1ccncc1 [Iproniazid]
PBMC; listed as iproniazid
  IC50: ≥ 50 µM
PBMC
  IC50: 290 µM
naïve T-cells
  Proliferation of primed T-cells, drug- vs medium-restimulated wells: increases in proliferation with drug restimulation was not observed
  Proliferation in medium restimulated wells after priming: high level of proliferation
T-cell clones
  Overall immunogenicity call in T-cell assays: did not flag these compounds as immunogenic
[1]
  Routine Assays that are Positive (GSK): None
[2]
  FDA Clinical Hepatotoxicity Concern: Most

## Cc1cccc(C)c1NC(=O)C1CCCCN1C (stereo not drawn) [Mepivacaine]
PBMC; listed as mepivacaine
  IC50: ≥ 50 µM
PBMC
  IC50: 210 µM
naïve T-cells
  Proliferation of primed T-cells, drug- vs medium-restimulated wells: increases in proliferation with drug restimulation was not observed
  Proliferation in medium restimulated wells after priming: high level of proliferation
T-cell clones
  Overall immunogenicity call in T-cell assays: no false positives
[1]
  Routine Assays that are Positive (GSK): None
[2]
  FDA Clinical Hepatotoxicity Concern: No
[3]
  LiverTox annotation: likelihood as cause of clinically apparent liver injury: Unlikely to be a cause of clinically apparent liver injury

## Cc1ccnc2c1NC(=O)c1cccnc1N2C1CC1 [Nevirapine]
PBMC; listed as nevirapine
  IC50: ≥ 50 µM
PBMC
  IC50: 110 µM
naïve T-cells
  Proliferation of primed T-cells, drug- vs medium-restimulated wells: increases in proliferation with drug restimulation was not observed
  Proliferation in medium restimulated wells after priming: high level of proliferation
T-cell clones
  Overall immunogenicity call in T-cell assays: did not flag these compounds as immunogenic
[1]
  Routine Assays that are Positive (GSK): None
[2]
  FDA Clinical Hepatotoxicity Concern: Most
[3]
  LiverTox annotation: likelihood as cause of clinically apparent liver injury: Well-known cause of clinically apparent liver injury. Immunoallergic hepatitis associated with specific HLA types

## O=C1CN(/N=C/c2ccc([N+](=O)[O-])o2)C(=O)N1 [Nitrofurantoin]
PBMC; Homo sapiens, PBMC
  IC50: 15 µM
PBMC
  IC50: ≤ 20 µM
T-cell clones
  Overall immunogenicity call in T-cell assays: did not flag these compounds as immunogenic
[2]
  FDA Clinical Hepatotoxicity Concern: Most
[3]
  LiverTox annotation: likelihood as cause of clinically apparent liver injury: Well-known cause of clinically apparent liver injury. Oxidative free radical formation. Some cases show autoimmune etiology with linkage to HLA-DR6 and DR2
